Data from PMC3068151 (PLoS ONE, 2011).

B1: ephrinA1-Fc: recombinant ephrinA1-Fc protein, ligand of the EphA2-Fc receptor (protein)
chain: DRHIVFWNSSNPKFREEDYTVHVQLNDYLDIICPHYEDDSVADAAMERYTLYMVEHQEYVACQPQSKDQVRWNCNRPSAKHGPEKLSEKFQRFTPFILGKEFKEGHSYYYISKPIYHQESQCLKLKVTVNGKITHNPQAHVNPQEKRLQADDPEVQVLHSIGYS
modifications: Ectodomain only, with the C-terminal IgG Fc carrier omitted; The Fc chimera is a disulfide-linked dimer; Limits follow the mature ectodomain without the signal peptide and GPI propeptide, by supplier

Key:
EphA2 [1] = biological target: T1, EphA2 (Homo sapiens, UniProt P29317); assay: Phosphorylated-EphA2 sandwich ELISA in PC3 cell lysates; assay type: cell-based; parameters: their known ability to naturally express EphA2; endogenous in cells; host or cells: PC3 (A5); conditions: PC3 cells, 100 µM
Protocol: (§1) Cells were seeded in 12-well plates at concentration of 10^5cells/ml in complete medium until they reached ∼40% confluence and serum starved overnight. The day after cells were treated with compounds under study, vehicle or standard drug, stimulated with the proper agonist, rinsed with sterile PBS and solubilized in lysis buffer. The lysates were resuspended and rocked at 4°C for 30 minutes and then centrifuged at 14000 xg for 5 minutes. The protein content of supernatant was measured with BCA protein assay kit (Thermo scientific), standardized to 200 µg/ml and transferred into a clean test tube ready to be used.
(§2) EphA2-, EphB4- and EGFR-phosphorylation were measured in cell lysates using DuoSet®IC Sandwich ELISA (RnD Systems, #DYC4056, #DYC4057 and #DYC1095, respectively) following manufacturer's protocol. […] The day after wells were washed and blocked for 1 hour at room temperature. After that, wells were washed and 100 µl/well of lysates were added at room temperature for 2 hours; wells were washed and incubated with Detection Antibody at room temperature for 2 hours.
(§3) EphB4 phosphorylation was stimulated with 3 µg/ml ephrinB2-Fc, preclustered with 0.3 µg/ml IgG Fc fragment on T47D cells (G, H, I). […] Phospho-EphA2/B4 levels are relative to ephrinA1/B2-Fc+DMSO. Data are the means of at least three independent experiment ± st. err. One-way ANOVA followed by Dunnet's post test was performed comparing Fc to all other columns for Fig A, D, G and ephrinA1-Fc+DMSO to all other columns for Fig B,C,E, F, H, I. *, p<0.05, **, p<0.01.

EphA2-ephrinA1 binding = biological target: T2, EphA2-ephrinA1 binding (Mus musculus, UniProt Q03145); assay: ELISA EphA2-ephrinA1 binding (displacement and saturation); conditions: for decrease of EphA2-ephrinA1 binding: bile acids, repeat of the 200 µM experiment
T2 construct: we immobilized EphA2-Fc- ectodomain on proper ELISA plates; purchased R&D systems 639-A2 (EphA2-Fc); BT602 (biotinylated ephrinA1-Fc)
Protocol: Our chemical collection (Table S1) was stocked in a 20 mM dimethyl sulfoxide (DMSO) solution and we performed binding assay at a concentration of 200 µM. Only compounds displacing more than 40% ephrinA1 from EphA2 receptor were considered for a full concentration-binding curve. […] The day after wells were washed three times with washing buffer (PBS +0.05% tween20, pH 7.5) and blocked with 300 µl of blocking solution (PBS +0.5% BSA) for 1 hour at 37°C. Compounds were added to the wells at proper concentration in 1% dimethyl sulfoxide (DMSO) and incubated at 37°C for 1 hour. Biotinylated ephrinA1-Fc (R&D BT602) was added at 37°C for 4 hours at 30 ng/ml in displacement assays or in a range from 1 to 2000 ng/ml in saturation studies. […] The reaction was stopped with 3N HCl 100 µl/well and the absorbance was measured using an ELISA plate reader (Sunrise, TECAN, Switzerland) at 450 nm.
The IC50 value was determined using one-site competition non-linear regression and Kd values of the curves with or without antagonists were calculated using one-binding site non-linear regression analysis with Prism software (GraphPad Software Inc.). The Ki was obtained using Schild plot where Log[DR-1] is a function of the negative Log10 of the inhibitor concentration. The Hill's coefficient was calculated using linear fitting to evaluate whether the inhibition was competitive or uncompetitive.
To identify compounds interfering with EphA2-ephrinA1 binding we immobilized EphA2-Fc- ectodomain on proper ELISA plates and binding of biotinylated-ephrin-A1-Fc was detected using the colorimetric reaction developed by streptavidine-HRP and tetramethylbenzidine.

EphA2 [2] = biological target: T1, EphA2; assay: Phosphorylated-EphA2 sandwich ELISA in HT29 cell lysates; assay type: cell-based; parameters: their known ability to naturally express EphA2; endogenous in cells; host or cells: HT29 (A6); conditions: HT29 cells, 100 µM
Protocol: as §1, §2, §3

T2 sequence (Q03145 26-538 limits assumed): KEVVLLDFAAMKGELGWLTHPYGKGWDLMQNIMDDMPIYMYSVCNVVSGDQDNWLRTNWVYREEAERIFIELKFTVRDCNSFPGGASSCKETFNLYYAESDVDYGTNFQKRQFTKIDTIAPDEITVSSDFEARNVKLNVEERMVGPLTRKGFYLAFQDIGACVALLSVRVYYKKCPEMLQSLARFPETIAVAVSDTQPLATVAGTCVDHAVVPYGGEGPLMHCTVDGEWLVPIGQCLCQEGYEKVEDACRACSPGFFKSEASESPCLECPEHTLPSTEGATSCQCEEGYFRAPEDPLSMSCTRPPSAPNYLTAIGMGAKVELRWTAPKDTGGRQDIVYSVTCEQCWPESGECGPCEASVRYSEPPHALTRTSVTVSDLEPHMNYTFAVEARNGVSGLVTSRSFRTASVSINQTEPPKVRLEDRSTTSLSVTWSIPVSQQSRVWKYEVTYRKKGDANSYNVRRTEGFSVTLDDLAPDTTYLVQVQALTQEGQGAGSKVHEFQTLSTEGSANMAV
T1 sequence (P29317 24-976): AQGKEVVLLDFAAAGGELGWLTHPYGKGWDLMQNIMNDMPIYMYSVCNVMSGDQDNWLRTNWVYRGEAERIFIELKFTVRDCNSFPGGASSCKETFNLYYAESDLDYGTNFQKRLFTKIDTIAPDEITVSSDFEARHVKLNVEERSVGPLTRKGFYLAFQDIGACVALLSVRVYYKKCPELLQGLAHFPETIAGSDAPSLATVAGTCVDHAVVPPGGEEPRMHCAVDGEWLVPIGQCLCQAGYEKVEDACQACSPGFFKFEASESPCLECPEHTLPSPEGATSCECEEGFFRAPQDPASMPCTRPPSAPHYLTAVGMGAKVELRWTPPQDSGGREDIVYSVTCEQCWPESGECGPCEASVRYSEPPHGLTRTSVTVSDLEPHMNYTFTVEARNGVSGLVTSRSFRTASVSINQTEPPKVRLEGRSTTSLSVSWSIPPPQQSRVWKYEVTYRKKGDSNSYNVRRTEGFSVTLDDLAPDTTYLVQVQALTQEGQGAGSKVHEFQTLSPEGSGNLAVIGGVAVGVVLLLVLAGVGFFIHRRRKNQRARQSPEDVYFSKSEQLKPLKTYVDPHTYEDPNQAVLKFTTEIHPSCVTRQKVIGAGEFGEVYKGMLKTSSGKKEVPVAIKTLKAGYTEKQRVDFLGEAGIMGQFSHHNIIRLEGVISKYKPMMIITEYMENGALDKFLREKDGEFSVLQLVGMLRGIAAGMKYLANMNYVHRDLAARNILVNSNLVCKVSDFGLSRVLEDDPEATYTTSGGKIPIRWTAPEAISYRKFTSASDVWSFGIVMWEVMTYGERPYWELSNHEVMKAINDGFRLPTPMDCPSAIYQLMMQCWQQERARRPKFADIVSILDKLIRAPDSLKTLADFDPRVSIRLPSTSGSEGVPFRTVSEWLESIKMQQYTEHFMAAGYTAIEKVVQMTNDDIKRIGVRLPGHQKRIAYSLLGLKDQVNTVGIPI

| Molecule | effect on Eph kinase phosphorylation as agonist or antagonist (EphA2 [1]) | decrease of EphA2-ephrinA1 binding (EphA2-ephrinA1 binding) | effect on Eph kinase phosphorylation as agonist or antagonist (EphA2 [2]) | Ki of EphA2-biotinylated-ephrin-A1 binding inhibition (EphA2-ephrinA1 binding; assay validation, Figure S1) [ng/mL] |
| --- | --- | --- | --- | --- |
| C[C@H](CCC(=O)O)[C@H]1CC[C@H]2[C@@H]3[C@H](O)C[C@@H]4C[C@H](O)CC[C@]4(C)[C@H]3C[C@H](O)[C@]12C [CA, cholic] | inactive | did not displaced | inactive | – |
| C[C@H](CCC(=O)O)[C@H]1CC[C@H]2[C@@H]3[C@H](O)C[C@@H]4C[C@H](O)CC[C@]4(C)[C@H]3CC[C@]12C [CDCA, chenodeoxycholic] | inactive | did not displaced | inactive | – |
| C[C@H](CCC(=O)O)[C@H]1CC[C@H]2[C@@H]3CC[C@@H]4C[C@H](O)CC[C@]4(C)[C@H]3C[C@H](O)[C@]12C [DCA, deoxycholic] | inactive | did not displaced | inactive | – |
| B1 | – | – | – | 102 |
